# Assay results reported in paper PMC6832503, “Synthesis of Novel Nicotinic Ligands with Multimodal Action: Targeting Acetylcholine α4β2, Dopamine and Serotonin Transporters” (Molecules, 2019).
# Where a name gives a salt, the structure may show the parent alone.
# Tests used:
# h-SERT = target: T1, h-SERT (Homo sapiens, UniProt P31645); assay: [3H]-paroxetine radioligand binding on h-SERT membranes (HEK293); conditions: for % radioligand binding at 25 µM / % of Binding [3H]-Paroxetine h-SERT: 25 μM compound, 2 nM [3H]-paroxetine, HEK293 h-SERT membranes; for affinity for h-SERT (displacement of [3H]-paroxetine from the central binding site): result in words
# T1 construct: purchased Perkin-Elmer RBHSTM400UA; host or cells: HEK293 membranes
# Experimental: (§1) To evaluate the affinity (Ki) of our compounds, competitive binding assays in α4β2 nAChR using [^3H]-cytisine as radioligand ([^3H]-Cyt) was measured. Binding experiments were carried out on whole rat brain synaptosomes. To evaluate the affinity on the monoamine transporters SERT and DAT, binding affinity (Ki) was determined using [^3H]-WIN 35,428 ([^3H]-WIN) for h-DAT and [^3H]-paroxetine ([^3H]-parox) for h-SERT as specific radioligands for the corresponding monoamine transporters respectively. Competitive binding studies were carried out on homogenized membranes prepared from the human clonal cell line HEK293 for h-SERT (Perkin Elmer) and CHO-K1 for h-DAT (Perkin Elmer). […].
# The cellular background HEK293 containing 400 μL of h-SERT (Code RBHSTM400UA, Perkin-Elmer, Santiago, Chile) was diluted in 12 Eppendorf tubes, containing a storage buffer solution of Tris-HCl 50 mM (pH 7.4), EDTA 0.5 mM, MgCl2 10 mM and 10% sucrose, obtaining a final volume between 260 and 340 μL, which was finally stored at −80 °C [46].
# Each Eppendorf tube was incubated with 50 mM Tris HCl buffer (pH 7.4), 120 mM NaCl, 5 mM KCl and the drugs under study using increasing concentrations, in presence of 2 nM of [^3H]-paroxetine (specific activity 23.1 Ci/mmol, Code NET86925UC, Perkin-Elmer, Santiago, Chile) with a final volume of 250 μL [46]. Non-specific binding was determined using […] fluoxetine. After 30 min at 27 °C, the incubation was stopped by rapid filtration on a Whatman GF/C filter preabsorbed in 0.5% polyethylenimine (PEI), washed with cold working buffer solution, 3 × 3mL, filtered, and scintillation liquid was added. The radioactivity was measured by liquid scintillation spectrometry (MicroBeta 2450 microplate counter, PerkinElmer, Santiago, Chile). The data were represented in a bar graph using 25 μM concentration for both, the compound under study and fluoxetine as the non-specific ligand. Each bar represents the mean ± S.E.M obtained in the experiments carried out in triplicates.
# h-DAT = target: T2, h-DAT (Homo sapiens, UniProt Q01959); assay: [3H]-WIN 35,428 competitive binding on h-DAT membranes (CHO-K1)
# T2 construct: purchased Perkin-Elmer RBHDATM400UA; host or cells: CHO-K1 membranes
# Experimental: as §1
# The cellular background CHO-K1 with 400 μL of h-DAT (Code RBHDATM400UA, Perkin-Elmer, Santiago, Chile) was diluted in 12 Eppendorf tubes, with a storage buffer solution of Tris-HCl 50 mM (pH 7.4), EDTA 0.5 mM, MgCl2 10 mM and 10% sucrose, obtaining a final volume of 260–340 μL stored at −80 °C [46]. Each Eppendorf tube was incubated in 50 mM Tris-HCl buffer solution (pH 7.4), 100 mM NaCl, the drugs under study were using increasing concentrations, with 1 nM of [^3H]-WIN 35,428 (specific activity 82.6 Ci/mmol, Code NET1033025UC, Perkin-Elmer, Santiago, Chile) with a final volume of 250 μL. Non-specific binding was determined using 10 mM methylphenidate.
# After 120 min at 4 °C, the incubation was stopped by rapid filtration on a Whatman GF/C filter preabsorbed in 0.5% polyethylenimine (PEI), washed with cold working buffer solution, 3 x 3mL, filtered, and scintillation liquid was added. The radioactivity was measured by liquid scintillation spectrometry (MicroBeta 2450 microplate counter, PerkinElmer, Santiago, Chile). The data were plotted by non-linear regression variable inhibitor-response dose (Prism 5.01, GraphPad, San Diego, CA, USA) to estimate the IC50 and Ki values for the tested compounds using the Cheng-Prusoff equation.
# α4β2 nAChR = target: T3, α4β2 nAChR (Rattus norvegicus, UniProt P09483+P12390); assay: [3H]-cytisine competitive binding on whole rat brain synaptosomes
# T3 construct: the rat complete brain P1 fraction (occupying 2 mg of wet tissue for each assay); from tissue; host or cells: whole rat brain, synaptosome pellet (fraction P1)
# Experimental: as §1
# Preparation of the synaptosome fraction: the rats were sacrificed by decapitation, and their brain removed without dissecting. Brain tissue was homogenized in 40 volumes using a buffer of 0.32 M sucrose at pH 7.4, containing 1 mM EDTA, 0.1 mM PMSF, and 0.01% of cold and freshly prepared NaN3, through a glass homogenizer and teflon stem. The homogenate was distributed in Eppendorf tubes and centrifuged at 20,000 g for 30 min at 4 °C to produce a synaptosome pellet (fraction P1) which is used for the binding assay. This fraction P1 was subsequently stored at −80 °C.
# Binding assay of [^3H]-cytisine in α4β2 nAChR cells: the rat complete brain P1 fraction (occupying 2 mg of wet tissue for each assay) was incubated in 2500 μL of 20 mM HEPES buffer solution at pH 7.4 containing 118 mm NaCl, 4.8 mm KCl, 2.5 mm CaCl2, 200 mm Tris, 0.1 mm PMSF and 0.01% NaN3 with or without the different drugs under study at different concentrations, in the presence of 1 nM of [^3H]-cytisine (specific activity 35.8 Ci/mmol, Code NET1054025UC, Perkin-Elmer, Santiago, Chile) in a final volume of 250 μL. Non-specific binding was determined using 2.5 mM of cytisine. Incubation was performed for 30 min at room temperature and then for 60 min at 4 °C. Incubation was stopped by rapid filtration in Whatman GF/C filter preabsorbed in 0.5% polyethylenimine, which were washed with cold and fresh working buffer 7 times, then dried, and adding scintillation liquid, left for the whole night in Eppendorf tubes in order to measure later the radioactivity by liquid scintillation spectrometry (MicroBeta 2450 microplate counter, PerkinElmer, Santiago, Chile). The data were plotted by non-linear regression variable inhibitor-response dose (Prism 5.01, GraphPad, San Diego, CA, USA) to obtain the IC50 and Ki values of the tested compounds using the Cheng-Prusoff equation.
compound,measurement,setting,value
CN1CCC[C@H]1COC(=O)Cc1ccc(Cl)cc1Cl (as salt: hydrochloride),melting point,,179.1 to 180.5 °C
CN1CCC[C@H]1COC(=O)Cc1ccc(Cl)c(Cl)c1 (as salt: hydrochloride),melting point,,183.5 to 184.8 °C
"CN1CCC[C@H]1COC(=O)c1cccc(Cl)c1 (as salt: hydrochloride) [Compound 3, (S)-(1-Methyl-2-pyrrolidinyl)methyl 3-chlorobenzoate]",melting point,,120.5 to 121.9 °C
"CN1CCC[C@H]1COC(=O)c1cccc(Br)c1 (as salt: hydrochloride) [Compound 4, (S)-(1-Methyl-2-pyrrolidinyl)methyl 3-bromobenzoate]",melting point,,99 to 101.4 °C
"Cc1ccccc1C(=O)OC[C@@H]1CCCN1C (as salt: hydrochloride) [Compound 5, (S)-(1-Methyl-2-pyrrolidinyl)methyl 2-methylbenzoate]",melting point,,130.5 to 131.6 °C
"CN1CCC[C@H]1COC(=O)c1ccc2ccccc2c1 (as salt: hydrochloride) [Compound 18, (S)-(1-Methyl-2-pyrrolidinyl)methyl 2-naphthoate]",melting point,,125.5 to 127.1 °C
"CN1CCCC1CCOC(=O)c1ccccc1 (racemic) (as salt: hydrochloride) [Compound 7, (±)-2-(1-Methyl-2-pyrrolidinyl)ethyl benzoate]",melting point,,88.6 to 89.1 °C
"CN1CCCC1CCOC(=O)c1ccccc1 (racemic) [Compound 7, (±)-2-(1-Methyl-2-pyrrolidinyl)ethyl benzoate]",% radioligand binding at 25 µM,h-SERT; values above 100 = increased radioligand binding,100 ± 0.5%
same,affinity for h-SERT (displacement of [3H]-paroxetine from the central binding site),h-SERT,no affinity
same,Ki (µM) h-DAT,h-DAT,no affinity and N.E
same,Ki,α4β2 nAChR,1.79 ± 0.378 µM
"CN1CCCC1CCOC(=O)c1cccc(F)c1 (racemic) [Compound 8, (±)-2-(1-Methyl-2-pyrrolidinyl)ethyl 3-fluorobenzoate]",% of Binding [3H]-Paroxetine h-SERT,h-SERT; […],increase in the binding
same,% radioligand binding at 25 µM,h-SERT; […],140 ± 2%
same,Ki (µM) h-DAT,h-DAT,N.E
same,Ki (µM) α4β2 nAChR,α4β2 nAChR,N.E
"CN1CCCC1CCOC(=O)c1cccc(Cl)c1 (racemic) [Compound 9, (±)-2-(1-Methyl-2-pyrrolidinyl)ethyl 3-chlorobenzoate]",% radioligand binding at 25 µM,h-SERT; […],108 ± 1.2%
same,Ki (µM) h-DAT,h-DAT,N.E
same,Ki,α4β2 nAChR,3.46 ± 0.36 µM
"Cc1ccccc1C(=O)OCCC1CCCN1C (racemic) [Compound 11, (±)-2-(1-Methyl-2-pyrrolidinyl)ethyl 2-methylbenzoate]",affinity for h-SERT (displacement of [3H]-paroxetine from the central binding site),h-SERT,did not display affinity
same,Ki (µM) h-DAT,h-DAT,did not display affinity
same,Ki (µM) α4β2 nAChR,α4β2 nAChR,did not display affinity
"Cc1ccc(C(=O)OCCC2CCCN2C)cc1 (racemic) [Compound 12, (±)-2-(1-Methyl-2-pyrrolidinyl)ethyl 4-methylbenzoate]",affinity for h-SERT (displacement of [3H]-paroxetine from the central binding site),h-SERT,did not display affinity
same,Ki (µM) h-DAT,h-DAT,did not display affinity
same,Ki (µM) α4β2 nAChR,α4β2 nAChR,did not display affinity
"CN1CCCC1CCOC(=O)Cc1ccccc1 (racemic) [Compound 16, (±)-2-(-1-Methyl-2-pyrrolidinyl)ethyl 2-phenylacetate]",% radioligand binding at 25 µM,h-SERT; […],92 ± 0.3%
same,Ki,h-DAT,22.7 ± 7.1 µM
same,Ki (µM) α4β2 nAChR,α4β2 nAChR,N.E
"CN1CCCC1CCOC(=O)Cc1ccc(Cl)c(Cl)c1 (racemic) [Compound 17, (±)-2-(-1-Methyl-2-pyrrolidinyl)ethyl 2-(3,4-dichlorophenyl)acetate]",% radioligand binding at 25 µM,h-SERT; […],78 ± 0.6%
same,Ki,h-DAT,3.32 ± 0.923 µM
same,Ki (µM) α4β2 nAChR,α4β2 nAChR,N.E
"CN1CCCC1CCOC(=O)c1ccc2ccccc2c1 (racemic) [Compound 19, (±)-2-(1-Methyl-2-pyrrolidinyl)ethyl 2-naphthoate]",% of Binding [3H]-Paroxetine h-SERT,h-SERT; […],increase in the binding
same,% radioligand binding at 25 µM,h-SERT; […],126 ± 1.9%
same,Ki,h-DAT,44.2 ± 8.12 µM
same,Ki (µM) α4β2 nAChR,α4β2 nAChR,N.E
"CN1CCCC1CCOC(=O)C(c1ccccc1)c1ccccc1 (racemic) [Compound 21, (±)-2-(-1-Methyl-2-pyrrolidinyl)ethyl 2,2-diphenylacetate]",% radioligand binding at 25 µM,h-SERT; […],86.5 ± 1.5%
same,Ki,h-DAT,0.075 ± 0.009 µM
same,Ki,α4β2 nAChR,0.113 ± 0.037 µM
"CN1CCC[C@H]1COC(=O)c1ccccc1 [Compound 1, (S)-(1-Methyl-2-pyrrolidinyl)methyl Benzoate]",% radioligand binding at 25 µM,h-SERT; […],86 ± 0.6%
same,Ki (µM) h-DAT,h-DAT,N.E
same,Ki,α4β2 nAChR,0.023 ± 0.006 µM
"CN1CCC[C@H]1COC(=O)c1cccc(F)c1 [Compound 2, (S)-(1-Methyl-2-pyrrolidinyl)methyl 3-fluorobenzoate]",% of Binding [3H]-Paroxetine h-SERT,h-SERT; […],increase in the binding
same,% radioligand binding at 25 µM,h-SERT; […],123 ± 1.2%
same,Ki (µM) h-DAT,h-DAT,N.E
same,Ki,α4β2 nAChR,0.094 ± 0.002 µM
"CN1CCC[C@H]1COC(=O)c1cccc(Cl)c1 [Compound 3, (S)-(1-Methyl-2-pyrrolidinyl)methyl 3-chlorobenzoate]",% radioligand binding at 25 µM,h-SERT; […],87.5 ± 1.5%
same,affinity for h-SERT (displacement of [3H]-paroxetine from the central binding site),h-SERT,lacks affinity
same,Ki (µM) h-DAT,h-DAT,lacks affinity and N.E
same,Ki,α4β2 nAChR,0.009 ± 0.001 µM
"CN1CCC[C@H]1COC(=O)c1cccc(Br)c1 [Compound 4, (S)-(1-Methyl-2-pyrrolidinyl)methyl 3-bromobenzoate]",% of Binding [3H]-Paroxetine h-SERT,h-SERT; […],increase in the binding
same,% radioligand binding at 25 µM,h-SERT; […],137 ± 1.2%
same,Ki (µM) h-DAT,h-DAT,N.E
same,Ki,α4β2 nAChR,0.132 ± 0.038 µM
"Cc1ccccc1C(=O)OC[C@@H]1CCCN1C [Compound 5, (S)-(1-Methyl-2-pyrrolidinyl)methyl 2-methylbenzoate]",affinity for h-SERT (displacement of [3H]-paroxetine from the central binding site),h-SERT,did not display affinity
same,Ki (µM) h-DAT,h-DAT,did not display affinity
same,Ki (µM) α4β2 nAChR,α4β2 nAChR,did not display affinity
"Cc1ccc(C(=O)OC[C@@H]2CCCN2C)cc1 [Compound 6, (S)-(1-Methyl-2-pyrrolidinyl)methyl 4-methylbenzoate]",affinity for h-SERT (displacement of [3H]-paroxetine from the central binding site),h-SERT,did not display affinity
same,Ki (µM) h-DAT,h-DAT,did not display affinity
same,Ki (µM) α4β2 nAChR,α4β2 nAChR,did not display affinity
"CN1CCC[C@H]1COC(=O)c1ccc2ccccc2c1 [Compound 18, (S)-(1-Methyl-2-pyrrolidinyl)methyl 2-naphthoate]",% of Binding [3H]-Paroxetine h-SERT,h-SERT; […],increase in the binding
same,% radioligand binding at 25 µM,h-SERT; […],117 ± 2.3%
same,Ki,h-DAT,99.3 ± 1.41 µM
same,Ki,α4β2 nAChR,0.12 ± 0.037 µM
